Laboratory results: patent US7070767B2, “Fossorial rodent control compositions and methods” (priority 1998, dated 2006)

System: rodents
Assay: effectiveness of respiratory irritants in the foam in hastening the death of rodents
Type: in vivo
Details: rodents that inhaled the foam/irritant combination
Experimental: Furthermore, it is available in commercial quantities in a finely ground form which disperses quickly and evenly into the concentrated foaming agent and remains suspended as the foaming agent is diluted and aerated. Alternative respiratory irritants may share all of or many of these characteristics and include ground horseradish and powdered elemental sulphur.
In the preferred embodiment, a concentrated composition is made by mixing the foaming agent in liquid concentrate form with the mustard powder, preferably in an approximate 3:1 ratio by weight, with the goal of achieving a 1% (w:v) foaming agent concentration and approximately 0.3% to 0.5% (w:v) mustard concentration when the concentrate is diluted to a use level. The proprietary concentrated foaming agents have specific gravities of approximately 1.029 kg per liter and it is generally recommended by the respective manufacturers that it be used in 0.1% to 1% concentration.

## [S] [powdered elemental sulphur, elemental sulphur]
  effectiveness as respiratory irritant in the foam: effective but less so than the ground mustard
